Like-named read-outs stand apart in the source and are kept apart here. Where a SMILES comes first, the peptide text is derived from it.
How the values were obtained:
[1] = tested on: antigenic peptide-pulsed L^kb cells
[2] = tested on: HSV peptide-pulsed L cells; conditions: peptide given as inoculated pressure sensitive adhesive tape
Experimental: At 1 week after the peptide application, cervical lymph node was removed, and lymphocytes were cultured for 2 days in vitro in an RPMI1640 medium containing a slight amount (5 U/ml) of IL-2. The L^kb cells labeled with ^51Cr were pulsed with antigenic peptide (5 µmol) and L^tk- cells were used as a control. Cytotoxicity assay was performed using cultured lymphocytes as effector cells, and ^51Cr-labeled and antigenic peptide-pulsed L^kb cells and L^tk- cells as target cells. […] The antigenic peptides used were the three kinds recited in Reference Example 1.

Row | SMILES | cytotoxic activity of cervical lymphocyte-derived effector cells (antigen specificity) [1] | Cytotoxic activity specific to HSV peptide-pulsed L cells (%) ([2]; time after stripping 12) | Cytotoxic activity specific to HSV peptide-pulsed L cells (%) ([2]; time after stripping 24) | Cytotoxic activity specific to HSV peptide-pulsed L cells (%) ([2]; time after stripping 48) | Cytotoxic activity specific to HSV peptide-pulsed L cells (%) ([2]; time after stripping: untreated)
1 | CC[C@H](C)[C@H](NC(=O)[C@H](CO)NC(=O)[C@@H](N)CO)C(=O)N[C@@H](CCC(=O)O)C(=O)N[C@@H](Cc1ccccc1)C(=O)N[C@@H](C)C(=O)N[C@@H](CCCNC(=N)N)C(=O)N[C@@H](CC(C)C)C(=O)O [HSV gp B, Ser Ser Ile Glu Phe Ala Arg Leu] (H-SSIEFARL-OH) | recognized and certainly eradicated the cells presenting an H-2K^b - HSV gp B peptide complex alone | 45.3 ± 1.5 | 37.0 ± 1.1 | 3.5 ± 0.6 | 0.2 ± 0.8
2 | CC[C@H](C)[C@H](NC(=O)[C@@H](NC(=O)[C@@H](N)CO)[C@@H](C)CC)C(=O)N[C@@H](CC(N)=O)C(=O)N[C@@H](Cc1ccccc1)C(=O)N[C@@H](CCC(=O)O)C(=O)N[C@@H](CCCCN)C(=O)N[C@@H](CC(C)C)C(=O)O [Ovalbumin, Ser Ile Ile Asn Phe Glu Lys Leu] | selectively damaged the cells presenting respective inoculated antigenic peptides |  |  |  | 
3 | CC(C)C[C@H](NC(=O)CNC(=O)[C@H](CCC(N)=O)NC(=O)[C@H](Cc1ccc(O)cc1)NC(=O)[C@@H](NC(=O)[C@H](Cc1ccc(O)cc1)NC(=O)CNC(=O)[C@@H](N)CCCNC(=N)N)C(C)C)C(=O)O [VSV NP, Arg Gly Tyr Val Tyr Gln Gly Leu] | selectively damaged the cells presenting respective inoculated antigenic peptides |  |  |  | 
